Reference: article PMC9504178 (Viruses, 2022)

Legend:
NL09 or NL11 = assay type: cell-based, influenza A virus
NL09 and NL11 strains = assay type: cell-based, influenza A virus

Row | SMILES | reduction of viral titers in hPCLSs (NL09 or NL11) | viral reduction in A549 cells (NL09 and NL11 strains) | viral reduction in hPCLSs (NL09 or NL11)
1 | CN(C)C/C=C/C(=O)Nc1cc2c(Nc3ccc(F)c(Cl)c3)ncnc2cc1O[C@H]1CCOC1 [AF, afatinib] | more than 1000 fold | – | –
2 | Cn1cc(-c2cc3c(N4CCN(c5ncc([C@@](C)(N)c6ccc(F)cc6)cn5)CC4)ncnn3c2)cn1 [AV, avapritinib] | ~ 10 fold | – | –
3 | CNC(=O)c1cc(Oc2ccc(NC(=O)Nc3ccc(Cl)c(C(F)(F)F)c3)c(F)c2)ccn1 [RG, regorafenib] | more than 1000 fold | ~ 2 log10 | ~ 4 log10
